From patent US9732094B2, “Arylquinazolines” (Merck Patent GmbH, priority 2013, dated 2017)
Where two headings read alike, the source gives them in different places. Blank lines part the entries; values can stand above or below the compound they belong to.

Assays:
[1] = target: DNA-PK (Homo sapiens (Human), UniProt P78527); assay: DNA-PK assay (biochemical), flashplate 33P-ATP kinase assay
Procedure: A) DNA-PK Assay (Biochemical)
The kinase assay was carried out in streptavidin-coated […] microtitre flashplates. […] The reaction was stopped using 50 μl/well of 200 mM EDTA. After incubation for a further 30 min at room temperature, the liquid was removed. Each well was washed three times with 100 μl of 0.9% saline solution. A nonspecific reaction (blank value) was determined using 10 μM of an innate kinase inhibitor. The radioactivity measurement was carried out using a TopCount. IC50 values were calculated in RS1.

[2] = target: DNA-PK phosphorylation at serine 2056 (Homo sapiens (Human), UniProt P78527); assay: DNA-PK phosphorylation at serine 2056 (cellular), bleomycin-treated HCT116 cells, ELISA; type: cell-based
Procedure: HCT116 cells were cultivated at 37° C. and 10% CO2 in MEM alpha medium with 10% of foetal calf serum and 2 mM glutamine. The cells were detached from the base of the culture vessels with the aid of trypsin/EDTA, centrifuged off in centrifuge tubes, taken up in fresh medium, and the cell density was determined. 100,000 cells were sown in 1 ml of culture medium per cavity of a 24-well cell culture plate and cultivated overnight. Next day, 10 μM bleomycin (DNA intercalator and inductor of DNA double-strand breaks) and test substances in fresh culture medium were added to the cells, and these were cultivated for a further six hours. […] The 96-well ELISA plates were subsequently treated with a detection antibody (Abcam ab79444: total DNA-PK) and a streptavidin-HRP conjugate. The development of the enzymatic reaction was carried out with the aid of a chemiluminescent reagent, the chemiluminescence was measured with the aid of a Mithras LB940. The signals with the phospho-DNA-PK-specific antibody were standardised to the signal with the antibody against the total protein DNA-PKc. […] The DMSO control was used as blank.

[3] = target: Kv11.1 (hERG) (Homo sapiens (Human), UniProt Q12809); assay: Kv11.1 (hERG) ion channel activity (patch clamp assay), HEK293 cells transfected with hERG gene
Sequence of Kv11.1 (hERG) (Q12809 whole entry): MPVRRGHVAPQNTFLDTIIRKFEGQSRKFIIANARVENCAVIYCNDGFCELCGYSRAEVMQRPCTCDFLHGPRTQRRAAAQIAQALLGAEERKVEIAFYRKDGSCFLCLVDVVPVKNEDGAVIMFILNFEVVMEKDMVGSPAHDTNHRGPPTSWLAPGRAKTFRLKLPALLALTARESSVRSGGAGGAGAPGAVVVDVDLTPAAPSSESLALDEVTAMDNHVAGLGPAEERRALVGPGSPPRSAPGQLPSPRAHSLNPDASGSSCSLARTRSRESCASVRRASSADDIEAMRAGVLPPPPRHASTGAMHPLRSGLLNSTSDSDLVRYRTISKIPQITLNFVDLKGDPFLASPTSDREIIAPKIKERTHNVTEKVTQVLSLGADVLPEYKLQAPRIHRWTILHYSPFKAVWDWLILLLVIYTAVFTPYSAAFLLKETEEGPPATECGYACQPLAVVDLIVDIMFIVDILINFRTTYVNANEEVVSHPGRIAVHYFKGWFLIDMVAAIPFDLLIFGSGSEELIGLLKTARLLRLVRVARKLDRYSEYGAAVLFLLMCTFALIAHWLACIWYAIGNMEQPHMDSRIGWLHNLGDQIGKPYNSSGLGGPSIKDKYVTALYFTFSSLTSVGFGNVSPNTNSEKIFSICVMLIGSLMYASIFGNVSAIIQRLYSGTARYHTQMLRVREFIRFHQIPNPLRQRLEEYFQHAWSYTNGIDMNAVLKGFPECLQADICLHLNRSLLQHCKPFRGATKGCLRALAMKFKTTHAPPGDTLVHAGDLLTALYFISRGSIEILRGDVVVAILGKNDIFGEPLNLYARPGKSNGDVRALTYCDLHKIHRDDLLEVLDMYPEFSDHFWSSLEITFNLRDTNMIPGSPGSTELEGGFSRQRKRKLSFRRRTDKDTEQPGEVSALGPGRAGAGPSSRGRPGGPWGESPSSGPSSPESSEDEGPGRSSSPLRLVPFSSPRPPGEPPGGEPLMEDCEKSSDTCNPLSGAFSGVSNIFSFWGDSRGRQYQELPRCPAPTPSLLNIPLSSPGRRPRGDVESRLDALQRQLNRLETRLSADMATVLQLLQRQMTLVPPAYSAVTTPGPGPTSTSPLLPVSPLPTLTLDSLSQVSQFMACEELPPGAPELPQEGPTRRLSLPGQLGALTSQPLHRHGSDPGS

[4] = cellular, HCT116 cells, 10 μM bleomycin, six hours, read-out: IC50 pDNA-PK
[5] = Ki [Kv1.11 hERG], patch clamp, HEK293 transfected with hERG gene
[6] = cellular DNA-PK phosphorylation at serine 2056, HCT116, read-out: IC50 pDNA-PK
[7] = read-out: Ki [Kv1.11 hERG], hERG patch clamp assay (cells without asterisk)
[8] = Ki [Kv1.11 hERG], hERG patch clamp assay (cells without asterisk)
[9] = read-out: Ki [Kv1.11 hERG], Table 5
[10] = read-out: Ki [Kv1.11 hERG], patch clamp, HEK293 transfected with hERG gene

IC50 ([1]; biochemical DNA-PK assay): > 0.03 µM
IC50 [2, 6]: 10 to 30 µM
SMILES: Cn1c(C(C(N)=O)c2cc(-c3ncnc4cc(N5CCOCC5)ccc34)c(F)cc2Cl)cccc1=O (stereo not shown) [Example 312, 2-[2-Chloro-4-fluoro-5-(7-morpholin-4-yl-quinazolin-4-yl)-phenyl]-2-(1-methyl-6-oxo-1,6-dihydro-pyridin-2-yl)-acetamide]
Ki [3, 7]: > 25 µM

IC50 ([1]; biochemical DNA-PK assay): 0.003 to 0.007 µM
IC50 [2, 6]: < 0.5 µM
SMILES: OC(c1cccnn1)c1cc(-c2ncnc3cc(N4CCOCC4)ccc23)ccc1Cl (single isomer, unassigned) [Example 470, [2-Chloro-5-(7-morpholin-4-yl-quinazolin-4-yl)-phenyl]pyridazin-3-yl-methanol]
Ki [3, 7]: > 25 µM

IC50 ([1]; biochemical DNA-PK assay): 0.003 to 0.007 µM
IC50 [2, 6]: < 0.5 µM
SMILES: COc1cnc(C(O)c2ccc(F)c(-c3ncnc4cc(N5CCOCC5)ccc34)c2)c(Br)c1 (stereo not shown) [Example 473, (3-bromo-5-methoxy-pyridin-2-yl)-[4-fluoro-3-(7-morpholin-4-yl-quinazolin-4-yl)-phenyl]methanol]
Ki [3, 8]: 15 to 25 µM

IC50 ([1]; biochemical DNA-PK assay): 0.007 to 0.03 µM
IC50 [2, 6]: 10 to 30 µM
SMILES: Cc1cnc(C(C(N)=O)c2ccc(F)c(-c3ncnc4cc(N5CCOCC5)ccc34)c2)c(C)n1 (stereo not shown) [Example 318, 2-(3,5-Dimethyl-pyrazin-2-yl)-2-[4-fluoro-3-(7-morpholin-4-yl-quinazolin-4-yl)-phenyl]acetamide]
Ki [3, 7]: > 25 µM

IC50 ([1]; biochemical DNA-PK assay): 0.007 to 0.03 µM
IC50 [2, 6]: 10 to 30 µM
SMILES: NC(=O)c1cncc(C(C(N)=O)c2ccc(F)c(-c3ncnc4cc(N5CCOCC5)ccc34)c2)n1 (stereo not shown) [Example 292, 6-{Carbamoyl-[4-fluoro-3-(7-morpholin-4-yl-quinazolin-4-yl)-phenyl]methyl}-pyrazine-2-carboxylic acid amide]
Ki [3, 7]: > 25 µM

IC50 ([1]; biochemical DNA-PK assay): 0.003 to 0.007 µM
IC50 [2, 6]: 5 to 10 µM
SMILES: NC(=O)C(c1ccc(F)c(-c2ncnc3cc(N4CCOCC4)ccc23)c1)c1nnc(Cl)c2ccsc12 (stereo not shown) [Example 290, 2-(4-Chlorothieno-[2,3-d}pyridazin-7-yl)-2-[4-fluoro-3-(7-morpholin-4-yl-quinazolin-4-yl)-phenyl]acetamide]
Ki [3, 7]: < 10 µM

IC50 ([1]; Table 5): 0.007 to 0.03 µM
SMILES: Cc1nc(C(O)c2cc(-c3ncnc4cc(N5CCOCC5)ccc34)cnc2F)sc1C (stereo not shown) [Example 194, (4,5-Dimethyl-thiazol-2-yl)-[2-fluoro-5-(7-morpholin-4-yl-quinazolin-4-yl)-pyridin-3-yl]-methanol]
Ki [3, 9]: > 25 µM

IC50 ([1]; Table 5): > 0.03 µM
SMILES: Cc1nc(C(O)c2cc(-c3ncnc4cc(N5CCOCC5)ccc34)cnc2F)sc1C (stereo not shown) [Example 206, (4,5-Dimethyl-thiazol-2-yl)-[2-fluoro-5-(7-morpholin-4-yl-quinazolin-4-yl)-pyridin-3-yl]-methanol]
Ki ([3]; Ki [Kv1.11 hERG], Table 5): 15 to 25 µM

IC50 ([1]; Table 5): > 0.03 µM
SMILES: Cc1csc(C(O)c2cnc(F)c(-c3ncnc4cc(N5CCOCC5)ncc34)c2)n1 (stereo not shown) [Example 195, [6-Fluoro-5-(7-morpholin-4-yl-pyrido[4,3-d}-pyrimidin-4-yl)-pyridin-3-yl]-(4-methyl-thiazol-2-yl)-methanol]
Ki ([3]; Ki [Kv1.11 hERG], Table 5): 15 to 25 µM

IC50 ([1]; Table 5): 0.007 to 0.03 µM
SMILES: CC(C)(C)n1cc(C(O)c2cc(-c3ncnc4cc(N5CCOCC5)ccc34)cnc2F)cn1 (stereo not shown) [Example 198, (1-tert-Butyl-1H-pyrazol-4-yl)-[2-fluoro-5-(7-morpholin-4-yl-quinazolin-4-yl)-pyridin-3-yl]-methanol]
Ki [3, 9]: > 25 µM

The next lines start with the compound.

SMILES: OC(c1ccc(F)c(-c2ncnc3cc(N4CCOCC4)ccc23)c1)c1ccc(OC(F)F)nn1 (stereo not shown) [Example 121, (6-Difluoro-methoxy-pyridazin-3-yl)-[4-fluoro-3-(7-morpholin-4-yl-quinazolin-4-yl)-phenyl]methanol]
IC50 ([1]; enzymatic, 5 μM ATP): 0.003 to 0.007 µM
IC50 [2, 4]: 0.5 to 5 µM
Ki [3, 5]: 15 to 25 µM

SMILES: OC(c1ccc(F)c(-c2ncnc3cc(N4CCOCC4)ccc23)c1)c1c(F)cncc1F (stereo not shown) [Example 1, (3,5-Difluoropyridin-4-yl)-[4-fluoro-3-(7-morpholin-4-ylquinazolin-4-yl)phenyl]methanol]
IC50 ([1]; enzymatic, 5 μM ATP): 0.003 to 0.007 µM
IC50 [2, 4]: 0.5 to 5 µM
Ki [3, 5]: 15 to 25 µM

SMILES: OCc1csc(C(O)c2cc(-c3ncnc4cc(N5C6CCC5COC6)ccc34)c(F)cc2Cl)n1 (stereo not shown) [Example 187, {2-Chloro-4-fluoro-5-[7-(3-oxa-8-aza-bicyclo[3.2.1]oct-8-yl)quinazolin-4-yl]-phenyl}-(4-hydroxy-methylthiazol-2-yl)-methanol]
IC50 ([2]; IC50 pDNA-PK, Table 5, HCT116 cells): 10 to 30 µM
Ki ([3]; Ki [Kv1.11 hERG], Table 5): 15 to 25 µM

SMILES: OC(c1cccc(-c2ncnc3cc(N4CCOCC4)ccc23)c1)c1nccs1 (stereo not shown) [Example 149, [3-(7-Morpholin-4-ylquinazolin-4-yl)-phenyl]thiazol-2-yl-methanol]
IC50 ([1]; Table 5): > 0.03 µM
Ki [3, 9]: > 25 µM

SMILES: [2H]C1([2H])OC([2H])([2H])C([2H])([2H])N(c2ccc3c(-c4cc(C(O)c5ccc(OC)nn5)c(Cl)cc4F)ncnc3c2)C1([2H])[2H] (single isomer, unassigned) [Example 239, [2-Chloro-4-fluoro-5-[7-(2,2.3,3,5,5,6,6-octadeuteriomorpholin-4-yl)quinazolin-4-yl]phenyl]-(6-methoxypyridazin-3-yl)methanol]
Ki [3, 8]: 15 to 25 µM

SMILES: NC(=O)C(c1cc(-c2ncnc3cc(N4CCOCC4)ccc23)c(F)cc1Cl)c1ncnn2cccc12 (stereo not shown) [Example 309, 2-[2-Chloro-4-fluoro-5-(7-morpholin-4-yl-quinazolin-4-yl)-phenyl]-2-[3H-pyrrolo[2,1-f][1,2,4]-triazin-(4E)-ylidene]-acetamide]
IC50 [2, 6]: 10 to 30 µM
Ki [3, 7]: < 10 µM

SMILES: Cc1nc(C(O)c2cc(-c3ncnc4cc(N5CCOCC5)ncc34)cnc2F)sc1C (stereo not shown) [Example 192, (4,5-Dimethyl-thiazol-2-yl)-[2-fluoro-5-(7-morpholin-4-yl-pyrido[4,3-d}-pyrimidin-4-yl)-pyridin-3-yl]-methanol]
IC50 ([1]; Table 5): > 0.03 µM
Ki ([3]; Ki [Kv1.11 hERG], Table 5): 10 to 15 µM

SMILES: COc1ccc(C(O)c2cc(-c3ncnc4cc(N5CCOCC5)ccc34)c(F)cc2F)nn1 (stereo not shown) [Example 131, [2,4-Difluoro-5-(7-morpholin-4-yl-quinazolin-4-yl)-phenyl]-(6-methoxy-pyridazin-3-yl)-methanol]
Ki [3, 5]: 15 to 25 µM

SMILES: CC(O)(c1cncc(-c2ncnc3cc(N4CCOCC4)ccc23)c1)c1nccs1 (stereo not shown) [Example 138, 1-[5-(7-Morpholin-4-ylquinazolin-4-yl)-pyridin-3-yl]-1-thiazol-2-ylethanol]
IC50 ([1]; Table 5): > 0.03 µM
Ki ([3]; Ki [Kv1.11 hERG], Table 5): 15 to 25 µM

SMILES: OC(c1ccc(F)c(-c2ncnc3cc(N4CCOCC4)sc23)c1)c1nccs1 (stereo not shown) [Example 145, [4-fluoro-3-(6-morpholin-4-ylthieno[3,2-d]pyrimidin-4-yl)phenyl]thiazol-2-ylmethanol]
IC50 ([2]; Table 5, HCT116 cells, read-out: IC50 pDNA-PK): 0.5 to 5 µM
Ki [3, 9]: > 25 µM

SMILES: OC(c1ccc(OC2COC2)nn1)c1cc(-c2ncnc3cc(N4CCOCC4)ccc23)c(F)cc1Cl (stereo not shown) [Example 100, [2-Chloro-4-fluoro-5-(7-morpholin-4-yl-quinazolin-4-yl)-phenyl]-[6-(oxetan-3-yloxy)pyridazin-3-yl)-methanol]
IC50 [2, 4]: < 0.5 µM
Ki [3, 5]: 10 to 15 µM

SMILES: OC(c1ccc(-c2ncnc3cc(N4CCOCC4)ccc23)s1)c1nccs1 (stereo not shown) [Example 147, [5-(7-Morpholin-4-ylquinazolin-4-yl)-thiophen-2-yl]-thiazol-2-ylmethanol]
Ki ([3]; Ki [Kv1.11 hERG], Table 5): 10 to 15 µM

SMILES: COc1ccc(C(O)c2cc(-c3ncnc4cc(N5CCOCC5)ccc34)c(F)cc2F)nn1 (single isomer, unassigned) [Example 130, [2,4-Difluoro-5-(7-morpholin-4-yl-quinazolin-4-yl)-phenyl]-(6-methoxy-pyridazin-3-yl)-methanol]
Ki [3, 10]: > 25 µM

SMILES: COc1ccc(C(O)c2cc(-c3ncnc4cc(N5CCOCC5)ccc34)c(F)cc2F)nn1 (single isomer, unassigned) [Example 129, [2,4-Difluoro-5-(7-morpholin-4-yl-quinazolin-4-yl)-phenyl]-(6-methoxy-pyridazin-3-yl)-methanol]
Ki [3, 5]: 15 to 25 µM

SMILES: COc1ccc([C@H](O)c2cc(-c3ncnc4cc(N5CCOCC5)ccc34)c(F)cc2Cl)nn1 [Example 135, (R)-[2-Chloro-4-fluoro-5-(7-morpholin-4-yl-quinazolin-4-yl)-phenyl]-(6-methoxy-pyridazin-3-yl)-methanol]
Ki [3, 10]: > 25 µM

SMILES: CC(O)(c1cccc(-c2ncnc3cc(N4CCOCC4)ccc23)c1)c1nccs1 (stereo not shown) [Example 154, 1-[3-(7-Morpholin-4-ylquinazolin-4-yl)-phenyl]-1-thiazol-2-ylethanol]
IC50 ([1]; Table 5): > 0.03 µM
Ki ([3]; Ki [Kv1.11 hERG], Table 5): 15 to 25 µM

SMILES: COc1ccc(C(O)c2cc(-c3ncnc4cc(N5CCOCC5)ccc34)c(F)cc2Cl)nn1 (stereo not shown) [Example 137, [2-Chloro-4-fluoro-5-(7-morpholin-4-ylquinazolin-4-yl)-phenyl]-(6-methoxy-pyridazin-3-yl)-methanol]
Ki [3, 5]: 10 to 15 µM
